{"source": "patent US6362160B1", "about": "“Immunophilin-binding agents prevent glutamate neurotoxicity associated with vascular stroke and neurodegenerative diseases” (The Johns Hopkins University School of Medicine, priority 1993, dated 2002)", "key": {"[1]": {"system": "cGMP formation in primary neuronal cortical cultures", "assay": "cGMP levels in primary neuronal cortical cultures", "type": "cell-based, rat", "method": "Methods: Primary neuronal cortical cultures were treated under identical conditions as those used for assessment of neurotoxicity except for the addition of 100 μM isobutylmethylxanthine (IBMX) to all wells to inhibit phosphodiesterases. […] Following ether extraction, cGMP was assayed utilizing an Amersham ^125 I-assay kit according to the manufacturer's instructions. Data represent the mean (±S.E.M.) of 6-12 wells (2-3 different plating of cultures) in duplicate. Statistical significance was determined by the Student's t-test, *p≦0.005."}, "[2]": {"system": "primary cerebral cortical neuronal cultures", "assay": "cells", "type": "cell-based", "method": "Methods: Primary neuronal cultures from cortex were prepared from fetal Sprague-Dawley rats gestation day 13-14. After dissection, the cells were dissociated by trituration, counted, and plated in 15 mm multi-well (Nunc) plates coated with polyornithine at a density of 3-4×10^5 cells per well. Proliferation of non-neuronal cells was inhibited by applying 10 μg of 5-fluor-2′-deoxyuridine 4 days after plating for a total of 3 days. Neurons were maintained in modified Eagle's medium (MEM), 5% horse serum, 2 mM glutamine in 8% CO2, humidified at 37° C. Media was changed twice a week. Mature neurons (greater than 21 days in culture) were used in all experiments.\nNeurotoxicity was determined by exposing the neurons to the various test solutions as previously described (Dawson, et al., Proc. Natl. Acad. Sci., USA, 88:6368-6371 (1991)). Prior to exposure, the cells were washed 3 times with a Tris-buffered control solution (CSS) containing 120 mM NaCl, 5.4 mM KCl, 1.8 mM CaCl2, 25 mM Tris-HCl, 15 mM glucose at pH 7.4. […] Rapamycin (RAPA) was applied 5 min. prior to and during the application of FK-506 and the excitatory amino acids. Following immunosuppressant drug pretreatment, NMDA and quisqualate were applied to the cells for 5 min., then the cells were washed with CSS and replaced with MEM, 21 mM glucose for 24 hr. in the incubator. Exposures to kainate were performed in MEM, 21 mM glucose for 24 hr. in the incubator. NMDA, quisqualate, and kainate were also applied to the neurons without immunosuppressant drug pretreatment. The effect of N-Arg (L-nitroarginine) on NMDA neurotoxicity was assessed as described (Dawson, et al., Proc. Natl. Acad. Sci., USA, 88:6368-6371 (1991)). Twenty to 24 hr. after exposure to test solutions, the neurons were exposed to 0.4% trypan blue in CSS to stain the residue of non-viable cells and to assess toxicity. Viable and non-viable cells were counted with approximately 500-1,500 cells counted per well. At least two separate experiments utilizing four separate wells were performed for each data point shown. A minimum of 4,000-12,000 neurons were counted for each data point. In some experiments photomicrographs were made before and after treatment using a transparent grid at the bottom of each culture plate. Viable and non-viable neurons in identical fields were counted by an observer blinded to study design and treatment protocol."}, "[3]": {"system": "NMDA elicited Ca2+ currents", "assay": "NMDA elicited Ca2+ currents in cortical cultures", "type": "cell-based, rat", "details": "FK-506 500 nM (data not shown)"}}}
{"smiles": "CN[C@H](CC(=O)O)C(=O)O", "note": "[NMDA, N-methyl-D-aspartate]", "values": [{"measurement": "% Basal cGMP Level (± S.E.M.)", "setting": "[1]; 500 μM NMDA alone, 5 min, 100 μM IBMX", "result": "552.6 ± 95.6", "unit": "%"}, {"measurement": "% Cell Death (± S.E.M.)", "setting": "[2]; 500 μM NMDA alone, 5 min exposure, counted 20-24 hr later", "result": "82.8 ± 4.3", "unit": "%"}, {"measurement": "death of neurons", "setting": "[2]; 5 min exposure to NMDA, observed 24 hrs later", "result": "about 80%"}]}
{"smiles": "C=C(C)[C@H]1CN[C@H](C(=O)O)[C@H]1CC(=O)O", "note": "[Kainate, kainate]", "values": [{"measurement": "% Cell Death (± S.E.M.)", "setting": "[2]; 100 μM Kainate alone, 24 hr exposure", "result": "83.2 ± 6.3", "unit": "%"}, {"measurement": "cell death elicited, compared with glutamate (500 μM)", "setting": "[2]; kainate 100 μM", "result": "as much cell death as glutamate"}]}
{"smiles": "N[C@@H](Cn1oc(=O)[nH]c1=O)C(=O)O", "note": "[Quisqualate, quisqualate]", "values": [{"measurement": "% Cell Death (± S.E.M.)", "setting": "[2]; 500 μM Quisqualate alone, 5 min exposure", "result": "85.9 ± 6.0", "unit": "%"}, {"measurement": "cell death elicited, compared with glutamate (500 μM)", "setting": "[2]; quisqualate 500 μM", "result": "as much cell death as glutamate"}]}
{"smiles": "N[C@@H](CCC(=O)O)C(=O)O", "note": "[Glutamate]", "values": [{"measurement": "% Cell Death (± S.E.M.)", "setting": "[2]; 500 μM Glutamate alone", "result": "76.0 ± 5.2", "unit": "%"}]}
{"smiles": "C=CC[C@@H]1/C=C(\\C)C[C@H](C)C[C@H](OC)[C@H]2O[C@@](O)(C(=O)C(=O)N3CCCC[C@H]3C(=O)O[C@H](/C(C)=C/[C@@H]3CC[C@@H](O)[C@H](OC)C3)[C@H](C)[C@@H](O)CC1=O)[C@H](C)C[C@@H]2OC", "note": "[FK-506]", "values": [{"measurement": "% Basal cGMP Level (± S.E.M.)", "setting": "[1]; 300 μM SNP + 100 nM FK-506", "result": "509.9 ± 63.4", "unit": "%"}, {"measurement": "% Basal cGMP Level (± S.E.M.)", "setting": "[1]; 500 μM NMDA + 100 nM FK-506", "result": "*89.3 ± 25.4%"}, {"measurement": "reduction of the NMDA stimulation of cGMP levels", "setting": "[1]; FK-506 100 nM", "result": "approximately 80%"}, {"measurement": "% Cell Death (± S.E.M.)", "setting": "[2]; 100 μM Kainate + 500 nM FK-506", "result": "88.1 ± 3.8", "unit": "%"}, {"measurement": "% Cell Death (± S.E.M.)", "setting": "[2]; 500 μM Glutamate + 500 nM FK-506", "result": "*40.6 ± 3.9%"}, {"measurement": "% Cell Death (± S.E.M.)", "setting": "[2]; 500 μM NMDA + 500 pM FK-506", "result": "78.3 ± 4.7", "unit": "%"}, {"measurement": "% Cell Death (± S.E.M.)", "setting": "[2]; 500 μM NMDA + 1 nM FK-506", "result": "77.1 ± 4.0", "unit": "%"}, {"measurement": "% Cell Death (± S.E.M.)", "setting": "[2]; 500 μM NMDA + 10 nM FK-506", "result": "68.5 ± 11.2", "unit": "%"}, {"measurement": "% Cell Death (± S.E.M.)", "setting": "[2]; 500 μM NMDA + 25 nM FK-506", "result": "*67.2 ± 4.1%"}, {"measurement": "% Cell Death (± S.E.M.)", "setting": "[2]; 500 μM NMDA + 50 nM FK-506", "result": "*61.9 ± 5.8%"}, {"measurement": "% Cell Death (± S.E.M.)", "setting": "[2]; 500 μM NMDA + 100 nM FK-506", "result": "*40.0 ± 9.1%"}, {"measurement": "% Cell Death (± S.E.M.)", "setting": "[2]; 500 μM NMDA + 500 nM FK-506", "result": "**29.7 ± 5.8%"}, {"measurement": "% Cell Death (± S.E.M.)", "setting": "[2]; 500 μM NMDA + 1 μM FK-506", "result": "**29.2 ± 4.1%"}, {"measurement": "% Cell Death (± S.E.M.)", "setting": "[2]; 500 μM Quisqualate + 500 nM FK-506", "result": "90.5 ± 4.4", "unit": "%"}, {"measurement": "EC50", "setting": "[2]; Rattus norvegicus, applied 5 min prior to and during 5 min NMDA application, read-out: concentration at which 50% protection from NMDA neurotoxicity is evident", "result": "25 to 100", "unit": "nM"}, {"measurement": "lowest concentration providing significant protection from NMDA neurotoxicity", "setting": "[2]; applied 5 min prior to and during 5 min NMDA application", "result": 25, "unit": "nM"}, {"measurement": "effect on NMDA elicited Ca2+ currents", "setting": "[3]", "result": "no effect"}]}
